US20240270741A1 (Cogent Biosciences, Inc., priority 2023, published 2024)

The compounds below were run against FGFR2 (Homo sapiens, UniProt P21802) (assay: FGFR wild type enzyme assay (HTRF KinEASE-TK), FGFR2). Details: Enz FGFR2 (nM), FGFR2 wild type enzyme.
Sequence of FGFR2 (P21802 399-821 limits assumed): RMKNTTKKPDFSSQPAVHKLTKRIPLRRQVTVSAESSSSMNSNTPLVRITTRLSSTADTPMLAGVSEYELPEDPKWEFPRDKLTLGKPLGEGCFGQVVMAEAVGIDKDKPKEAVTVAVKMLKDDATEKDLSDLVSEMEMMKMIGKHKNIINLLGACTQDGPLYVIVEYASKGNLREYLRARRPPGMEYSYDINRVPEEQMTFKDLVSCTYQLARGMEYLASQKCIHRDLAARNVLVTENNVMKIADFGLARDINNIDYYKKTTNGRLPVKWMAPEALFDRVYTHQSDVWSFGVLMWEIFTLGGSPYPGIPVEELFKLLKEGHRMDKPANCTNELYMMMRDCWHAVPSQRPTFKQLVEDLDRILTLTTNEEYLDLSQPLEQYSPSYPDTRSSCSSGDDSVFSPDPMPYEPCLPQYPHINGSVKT

First: Cc1c(-c2cc(Sc3ncccc3F)c3c(C#N)cnn3c2)cnn1C1CCN(CC(=O)N(C)C)CC1 [Example 195, 2-(4-(4-(3-cyano-4-((3-fluoropyridin-2-yl)thio)pyrazolo[1,5-a]pyridin-6-yl)-5-methyl-1H-pyrazol-1-yl)piperidin-1-yl)-N,N-dimethylacetamide]
Second: Cc1c(-c2cc(Sc3ncccc3F)c3c(C#N)cnn3c2)cnn1CC1CCN(CC(=O)N(C)C)CC1 [Example 217, 2-(4-((4-(3-cyano-4-((3-fluoropyridin-2-yl)thio)pyrazolo[1,5-a]pyridin-6-yl)-5-methyl-1H-pyrazol-1-yl)methyl)piperidin-1-yl)-N,N-dimethylacetamide]
The IC50 of the first is 4.3-fold lower: 1.4 nM for the first, 6 nM for the second. The first is the more potent here.

Going from Cc1c(-c2cc(Sc3ncccc3F)c3c(C#N)cnn3c2)cnn1C1CCN(C(=O)[C@@H]2C[C@@H](F)CN2C)CC1 [Example 196, 6-(1-(1-((2S,4R)-4-fluoro-1-methylpyrrolidine-2-carbonyl)piperidin-4-yl)-5-methyl-1H-pyrazol-4-yl)-4-((3-fluoropyridin-2-yl)thio)pyrazolo[1,5-a]pyridine-3-carbonitrile] to Cc1c(-c2cc(Sc3ncccc3F)c3c(C#N)cnn3c2)cnn1C1CCN(C(=O)[C@@H](C)N(C)C)CC1 [Example 214, 6-(1-(1-(dimethyl-D-alanyl)piperidin-4-yl)-5-methyl-1H-pyrazol-4-yl)-4-((3-fluoropyridin-2-yl)thio)pyrazolo[1,5-a]pyridine-3-carbonitrile], the IC50 rises from 1 nM to 1.6 nM (1.6-fold). The first is the more potent here.

Going from Cc1c(-c2cc(Sc3ncccc3F)c3c(C#N)cnn3c2)cnn1[C@H](C)[C@H](O)CO [Example 197, 6-(1-((2R,3S)-3,4-dihydroxybutan-2-yl)-5-methyl-1H-pyrazol-4-yl)-4-((3-fluoropyridin-2-yl)thio)pyrazolo[1,5-a]pyridine-3-carbonitrile] to Cc1c(-c2cc(Sc3ncccc3F)c3c(C#N)cnn3c2)cnn1[C@@H](C)[C@H](O)CO [Example 198, 6-(1-((2S,3S)-3,4-dihydroxybutan-2-yl)-5-methyl-1H-pyrazol-4-yl)-4-((3-fluoropyridin-2-yl)thio)pyrazolo[1,5-a]pyridine-3-carbonitrile], the IC50 rises from 3 nM to 21 nM (7-fold).

Cc1c(-c2cc(Sc3ccccc3C#N)c3c(C#N)cnn3c2)cnn1C1CC2CCC(C1)N2C (stereo not drawn) [Example 199, 4-((2-cyanophenyl)thio)-6-(5-methyl-1-(8-methyl-8-azabicyclo[3.2.1]octan-3-yl)-1H-pyrazol-4 yl)pyrazolo[1,5-a]pyridine-3-carbonitrile] and Cc1c(-c2cc(Sc3ccccc3C#N)c3c(C#N)cnn3c2)cnn1CC1CCNCC1 [Example 200, 4-((2-cyanophenyl)thio)-6-(5-methyl-1-(piperidin-4-ylmethyl)-1H-pyrazol-4-yl)pyrazolo[1,5-a]pyridine-3-carbonitrile] are the same in IC50: 1 nM for the first, 1 nM for the second.

Cc1c(-c2cc(Sc3ccccc3C#N)c3c(C#N)cnn3c2)cnn1C[C@H]1CCCNC1 [Example 201, (S)-4-((2-cyanophenyl)thio)-6-(5-methyl-1-(piperidin-3-ylmethyl)-1H-pyrazol-4-yl)pyrazolo[1,5-a]pyridine-3-carbonitrile] and CC(=O)N1CCC[C@H](Cn2ncc(-c3cc(Sc4ccccc4C#N)c4c(C#N)cnn4c3)c2C)C1 [Example 202, (S)-6-(1-((1-acetylpiperidin-3-yl)methyl)-5-methyl-1H-pyrazol-4-yl)-4-((2-cyanophenyl)thio)pyrazolo [1,5-a]pyridine-3-carbonitrile] are the same in IC50: 2 nM for the first, 2 nM for the second.

Going from Cc1c(-c2cc(Sc3ncccc3F)c3c(C#N)cnn3c2)cnn1C1CC2CCC(C1)N2 (stereo not drawn) [Example 203, 4-[(3-fluoro-2-pyridiyl)sulfonyl]-6-[1-[1-(1-prop-2-enoylazetidine-3-carbonyl)-4-piperidyl]pyrazol-4-yl]pyrazolo[1,5-a]pyridine-3-carbonitrile] to CN[C@H]1C[C@@H](n2ncc(-c3cc(Sc4ncccc4F)c4c(C#N)cnn4c3)c2C)C1 [Example 208, 4-((3-fluoropyridin-2-yl)thio)-6-(5-methyl-1-((1s,3s)-3-(methylamino)cyclobutyl)-1H-pyrazol-4-yl)pyrazolo[1,5-a]pyridine-3-carbonitrile], the IC50 falls from 2 nM to 1 nM (2-fold). The second is the more potent here.

Going from CC(=O)N1C2CCC1CC(n1ncc(-c3cc(Sc4ncccc4F)c4c(C#N)cnn4c3)c1C)C2 (stereo not drawn) [Example 204, 6-(1-(8-acetyl-8-azabicyclo[3.2.1]octan-3-yl)-5-methyl-1H-pyrazol-4-yl)-4-((3-fluoropyridin-2-yl)thio)pyrazolo[1,5-a]pyridine-3-carbonitrile] to CC(=O)N[C@H]1CC[C@@H](n2ncc(-c3cc(Sc4ncccc4F)c4c(C#N)cnn4c3)c2C)CC1 [Example 220, N-((1s,4S)-4-(4-(3-cyano-4-((3-fluoropyridin-2-yl)thio)pyrazolo[1,5-a]pyridin-6-yl)-5-methyl-1H-pyrazol-1-yl)cyclohexyl)acetamide], the IC50 rises from 2 nM to 5 nM (2.5-fold). The first is the more potent here.

First: CC(=O)N1CCC(Cn2ncc(-c3cc(Sc4ncccc4F)c4c(C#N)cnn4c3)c2C)CC1 [Example 205, 6-(1-((1-acetylpiperidin-4-yl)methyl)-5-methyl-1H-pyrazol-4-yl)-4-((3-fluoropyridin-2-yl)thio)pyrazolo[1,5-a]pyridine-3-carbonitrile]
Second: CC(=O)N1CCC[C@H](Cn2ncc(-c3cc(Sc4ncccc4F)c4c(C#N)cnn4c3)c2C)C1 [Example 207, (S)-6-(1-((1-acetylpiperidin-3-yl)methyl)-5-methyl-1H-pyrazol-4-yl)-4-((3-fluoropyridin-2-yl)thio)pyrazolo[1,5-a]pyridine-3-carbonitrile]
The IC50 of the first is 1.7-fold lower: 3 nM for the first, 5 nM for the second. The first is the more potent here.

First: Cc1c(-c2cc(Sc3ncccc3F)c3c(C#N)cnn3c2)cnn1C[C@H]1CCCNC1 [Example 206, (S)-4-((3-fluoropyridin-2-yl)thio)-6-(5-methyl-1-(piperidin-3-ylmethyl)-1H-pyrazol-4-yl)pyrazolo[1,5-a]pyridine-3-carbonitrile]
Second: Cc1c(-c2cc(Sc3ncccc3F)c3c(C#N)cnn3c2)cnn1CC1CCNCC1 [Example 222, 4-((3-fluoropyridin-2-yl)thio)-6-(5-methyl-1-(piperidin-4-ylmethyl)-1H-pyrazol-4-yl)pyrazolo[1,5-a]pyridine-3-carbonitrile]
The IC50 of the first is 1.7-fold lower: 3 nM for the first, 5 nM for the second. The first is the more potent here.

Cc1c(-c2cc(Sc3ncccc3F)c3c(C#N)cnn3c2)cnn1C1CC2(CNC2)C1 [Example 209, 4-((3-fluoropyridin-2-yl)thio)-6-(5-methyl-1-(2-azaspiro[3.3]heptan-6-yl)-1H-pyrazol-4-yl)pyrazolo[1,5-a]pyridine-3-carbonitrile] and CNC1CC2(C1)CC(n1ncc(-c3cc(Sc4ncccc4F)c4c(C#N)cnn4c3)c1C)C2 (stereo not drawn) [Example 211, 4-((3-fluoropyridin-2-yl)thio)-6-(5-methyl-1-(6-(methylamino)spiro[3.3]hep-tan-2-yl)-1H-pyrazol-4-yl)pyrazolo[1,5-a]pyridine-3-carbonitrile] are the same in IC50: 1 nM for the first, 1 nM for the second.

CC(=O)N1CC2(CC(n3ncc(-c4cc(Sc5ncccc5F)c5c(C#N)cnn5c4)c3C)C2)C1 [Example 210, 6-(1-(2-acetyl-2-azaspiro[3.3]heptan-6-yl)-5-methyl-1H-pyrazol-4-yl)-4-((3-fluoropyridin-2-yl)thio)pyrazolo[1,5-a]pyridine-3-carbonitrile] and Cc1c(-c2cc(Sc3ncccc3F)c3c(C#N)cnn3c2)cnn1C1CCN(C(=O)[C@H](C)N(C)C)CC1 [Example 215, 6-(1-(1-(dimethyl-L-alanyl)piperidin-4-yl)-5-methyl-1H-pyrazol-4-yl)-4-((3-fluoropyridin-2-yl)thio)pyrazolo[1,5-a]pyridine-3-carbonitrile] are within 1.5-fold of each other in IC50: 2 nM for the first, 1.6 nM for the second.

First: Cc1c(-c2cc(Sc3ncccc3F)c3c(C#N)cnn3c2)cnn1C[C@H]1CC[C@@H](O)CC1 [Example 212, 4-((3-fluoropyridin-2-yl)thio)-6-(1-(((1s,4s)-4-hydroxycyclohexyl)methyl)-5-methyl-1H-pyrazol-4-yl)pyrazolo[1,5-a]pyridine-3-carbonitrile]
Second: Cc1c(-c2cc(Sc3ncccc3F)c3c(C#N)cnn3c2)cnn1[C@@H]1CCNC[C@H]1F [Example 223]
The IC50 of the first is 2.7-fold lower: 3 nM for the first, 8 nM for the second. The first is the more potent here.

Cc1c(-c2cc(Sc3ncccc3F)c3c(C#N)cnn3c2)cnn1C1CCN(C(=O)C(C)(C)N(C)C)CC1 [Example 213, 6-(1-(1-(2-(dimethylamino)-2-methylpropanoyl)piperidin-4-yl)-5-methyl-1H-pyrazol-4-yl)-4-((3-fluoropyridin-2-yl)thio)pyrazolo[1,5-a]pyridine-3-carbonitrile] and Cc1c(-c2cc(Sc3ncccc3F)c3c(C#N)cnn3c2)cnn1C1CCN(Cc2ncccn2)CC1 [Example 216, 4-((3-fluoropyridin-2-yl)thio)-6-(5-methyl-1-(1-(pyrimidin-2-ylmethyl)piperidin-4-yl)-1H-pyrazol-4-yl)pyrazolo[1,5-a]pyridine-3-carbonitrile] are within 1.5-fold of each other in IC50: 1.6 nM for the first, 2 nM for the second.

Going from Cc1c(-c2cc(Sc3ncccc3F)c3c(C#N)cnn3c2)cnn1[C@H](C)C1CCNCC1 [Example 218, (R)-4-((3-fluoropyridin-2-yl)thio)-6-(5-methyl-1-(1-(piperidin-4-yl)ethyl)-1H-pyrazol-4-yl)pyrazolo[1,5-a]pyridine-3-carbonitrile] to Cc1c(-c2cc(Sc3ncccc3F)c3c(C#N)cnn3c2)cnn1[C@H]1CC[C@]2(CCNC2)CC1 [Example 219, 4-((3-fluoropyridin-2-yl)thio)-6-(5-methyl-1-((5s,8s)-2-azaspiro[3.4]decan-8-yl)-1H-pyrazol-4-yl)pyrazolo[1,5-a]pyridine-3-carbonitrile], the IC50 falls from 3 nM to 0.5 nM (6-fold). The second is the more potent here.

Compared with CC(=O)N1CCC(Cn2ncc(-c3cc(Sc4ccccc4C#N)c4c(C#N)cnn4c3)c2C)CC1 [Example 221, 6-(1-((1-acetylpiperidin-4-yl)methyl)-5-methyl-1H-pyrazol-4-yl)-4-((2-cyanophenyl)thio)pyrazolo [1,5-a]pyridin-3-carbonitrile], CC(=O)N1CCC[C@@H](Cn2ncc(-c3cc(Sc4ccccc4C#N)c4c(C#N)cnn4c3)c2C)C1 [Example 224, (R)-6-(1-((1-acetylpiperidin-3-yl)methyl)-5-methyl-1H-pyrazol-4-yl)-4-((2-cyanophenyl)thio)pyrazolo [1,5-a]pyridine-3-carbonitrile] is 8-fold higher in IC50: 1 nM for the first, 8 nM for the second.
